tested on: MCF-7 cells; assay: MCF-7 cell growth inhibition assay; type: cell-based; conditions: Homo sapiens, MCF7, 120 h, MCF-7 cells plated in presence of estradiol (1 nM), five days incubation, Presto Blue viability
Experimental: MCF-7 Cell Growth Inhibition Assay
MCF-7 cells were plated in 96 well plate in the presence of estradiol (1 nM) and incubated overnight. After 24 hours test compound was added at various concentrations and incubated for five days. On the fifth day, cell viability was evaluated using Presto Blue Cell Viability Reagent. Percentage growth inhibition was calculated as follows: 100−[(O.D. of sample)*100/O.D. of vehicle control] wherein O.D. is optical density.

Compared with `CC1=C(c2cccc(O)c2)C(c2ccc(/C=C\CNCCCCCCCCF)cc2)Oc2ccc(O)cc21` (stereo not drawn) [Compound 50], `CC1=C(c2cccc(O)c2)C(c2ccc(/C=C\CNCCCCOCCCCF)cc2)Oc2ccc(O)cc21` (stereo not drawn) [Compound 62] is lower in inhibition at 1 µM: 57.3% for the first, 53.1% for the second.

First: CC1=C(c2cccc(O)c2)C(c2ccc(C#CCNCCCCCCCCF)cc2)Oc2ccc(O)cc21 (stereo not drawn) [Compound 51]
Second: CC1=C(c2cccc(O)c2)C(c2ccc(C#CCNCCCCCCCCCCF)cc2)Oc2ccc(O)cc21 (stereo not drawn) [Compound 52]
The inhibition at 1 µM of the first is lower: 61.1% for the first, 74.3% for the second.

Going from `CC1=C(c2cccc(O)c2)C(c2ccc(C#CCN(C)CCCCCCCCCF)cc2)Oc2ccc(O)cc21` (stereo not drawn) [Compound 53] to `CC1=C(c2cccc(O)c2)C(c2ccc(C#CCNCCCCCCCCC(F)F)cc2)Oc2ccc(O)cc21` (stereo not drawn) [Compound 54], the inhibition at 1 µM rises from 38.6% to 67.5%.

Going from `CC1=C(c2cccc(O)c2)C(c2ccc(C#CCN3CCC(F)(F)C3)cc2)Oc2ccc(O)cc21` (stereo not drawn) [Compound 56] to `CC1=C(c2cccc(O)c2)C(c2ccc(C#CCN3CC[C@@H](CF)C3)cc2)Oc2ccc(O)cc21` (stereo partly drawn) [Compound 64], the inhibition at 1 µM rises from 44.9% to 47.2%.

Compared with `CC1=C(c2cccc(O)c2)C(c2ccc(/C=C\CN3CCC(F)(F)C3)cc2)Oc2ccc(O)cc21` (stereo not drawn) [Compound 57], `CC1=C(c2cccc(O)c2)C(c2ccc(/C=C/CN3CCC(F)(F)C3)cc2)Oc2ccc(O)cc21` (stereo not drawn) [Compound 58] is higher in inhibition at 1 µM: 24.3% for the first, 37.9% for the second.

Going from `CC1=C(c2cccc(O)c2)C(c2ccc(/C=C/CN3CC[C@@H](CF)C3)cc2)Oc2ccc(O)cc21` (stereo partly drawn) [Compound 59] to `CC1=C(c2cccc(O)c2)C(c2ccc(/C=C/CN3CC[C@@H](CO)C3)cc2)Oc2ccc(O)cc21` (stereo partly drawn) [Compound 60], the inhibition at 1 µM falls from 73.5% to 55%.

Going from `CC1=C(c2cccc(O)c2)C(c2ccc(C#CCNCCCCOCCCCF)cc2)Oc2ccc(O)cc21` (stereo not drawn) [Compound 61] to `CC1=C(c2cccc(O)c2)C(c2ccc(/C=C/CNCCCCOCCCCF)cc2)Oc2ccc(O)cc21` (stereo not drawn) [Compound 63], the inhibition at 1 µM rises from 39.3% to 41.8%.

Compared with `CC1=C(c2cccc(O)c2)C(c2ccc(/C=C/CN3CCC(C(F)(F)F)C3)cc2)Oc2ccc(O)cc21` (stereo not drawn) [Compound 65], `CC1=C(c2cccc(O)c2)C(c2ccc(/C=C\CN3CCC(C(F)(F)F)C3)cc2)Oc2ccc(O)cc21` (stereo not drawn) [Compound 66] is lower in inhibition at 1 µM: 55.4% for the first, 12.9% for the second.

First: CC1=C(c2cccc(O)c2)C(c2ccc(/C=C\CN3CCC(CF)(CF)C3)cc2)Oc2ccc(O)cc21 (stereo not drawn) [Compound 67]
Second: CC1=C(c2cccc(O)c2)C(c2ccc(/C=C\CN3CC[C@@H](CO)C3)cc2)Oc2ccc(O)cc21 (stereo partly drawn) [Compound 72]
The inhibition at 1 µM of the first is lower: 30.1% for the first, 31.9% for the second.

Compared with `CC1=C(c2cccc(O)c2)C(c2ccc(/C=C/CN(C)CCCCCCCCC(F)F)cc2)Oc2ccc(O)cc21` (stereo not drawn) [Compound 70], `CC1=C(c2cccc(O)c2)C(c2ccc(/C=C\CN(C)CCCCCCCCC(F)F)cc2)Oc2ccc(O)cc21` (stereo not drawn) [Compound 71] is higher in inhibition at 1 µM: 16.9% for the first, 56.8% for the second.

Compared with `CC1=C(c2cc(O)cc(F)c2)C(c2ccc(/C=C\CN3CC[C@@H](C)C3)cc2)Oc2ccc(O)cc21` (stereo partly drawn) [Compound 81], `CC1=C(c2cc(F)cc(F)c2)C(c2ccc(/C=C\CN3CCN(C)CC3)cc2)Oc2ccc(O)cc21` (stereo not drawn) [Compound 83] is lower in inhibition at 1 µM: 77.4% for the first, 12.9% for the second.

same assay, conditions: at 1 μM; MCF-7 cells plated in presence of estradiol (1 nM), five days incubation, Presto Blue viability

First: CC1=C(c2cccc(O)c2)C(c2ccc(/C=C\CN3CC[C@@H](CF)C3)cc2)Oc2ccc(O)cc21 (stereo partly drawn) [Compound 55]
Second: CC1=C(c2cccc(O)c2)C(c2ccc(/C=C\CN3CC[C@@H](C)C3)cc2)Oc2ccc(O)cc21 (stereo partly drawn) [Compound 75]
The “% inhibition” value of the first is lower: 67.1% for the first, 74.4% for the second.

Compared with `CC1=C(c2cccc(O)c2)C(c2ccc(C#CCN(C)CCCCCCCCCC(F)F)cc2)Oc2ccc(O)cc21` (stereo not drawn) [Compound 69], `CC1=C(c2cccc(O)c2)C(c2ccc(/C=C/CNCCCCCCCCCF)cc2)Oc2ccc(O)cc21` (stereo not drawn) [Compound 79] is higher in “% inhibition” value: 19.8% for the first, 64.8% for the second.

In the case of `CC1=C(c2cccc(O)c2)C(c2ccc(/C=C/CNCCCCCCCCCF)cc2)Oc2ccc(O)cc21` (stereo not drawn) [Compound 80], the “% inhibition” value is reported as 53%.

Source: patent US11465990B2, “Heterocyclic antiestrogens” (SUN PHARMA ADVANCED RESEARCH COMPANY LIMITED, priority 2015, dated 2022)
